# Measurements published in patent US20110207807A1, “NEW USE FOR HOMOISOFLAVONE OR A SALT THEREOF” (Catholic University Industry Academy Cooperation Foundation, priority 2008, published 2011).
# Legend:
# ERK = test: UV-induced ERK phosphorylation in HaCaT cells (Western blot); format: cell-based, human; settings: 1 μg/mL, UV (FIG. 2d)
# Protocol: In order to identify the intracellular factors affecting COX-2 expression that are affected by homoisoflavanone, Western blotting was carried out in the same manner as in Example 2-1 except for treating with homoisoflavanone at 1 μg/mL, irradiating UV for 45 minutes and using rabbit anti-p-cytosolic phospholipase A2 (cPLA2) antibody, rabbit anti-cPLA2 antibody, rabbit anti-ERK antibody, rabbit anti-p-ERK antibody, rabbit anti-p38 antibody or rabbit anti-p-p38 antibody and using anti-rabbit IgG-HRP conjugation antibody (Zymed) as secondary antibody. Positive control groups were treated with 1 μM SB203580 (A.G. Scientific, Inc.) as p38 inhibitor or 10 μM PD98059 (A.G. Scientific, Inc.) as MEK 1 inhibitor instead of homoisoflavanone.
# 5-LOX = 5-LOX translocation to nuclear membrane induced by PMA and A23187 in HMC-1 (Western blot); format: cell-based, human; settings: HMC-1, 2 μg/mL, 50 nM PMA + 1 μM A23187, 5 hours (FIG. 7b)
# Protocol: In order to investigate the effect of homoisoflavanone on the migration of 5-LOX from the cytoplasm toward the nuclear membrane induced by phorbol 12-myristate 13-acetate and A23187 in human mast cells, 1×10^6 HMC-1 cells were inoculated on a 100-mm culture dish and cultured in IMDM containing 10% FBS for 48 hours. Then, after treating with homoisoflavanone at 2 μg/mL, the cells were treated with 50 nM phorbol 12-myristate 13-acetate and 1 μM A23187 to induce migration of 5-LOX to the nuclear membrane, and then further cultured for 5 hours.
# Then, in order to measure the migration of 5-LOX to the nuclear membrane, nuclear membrane proteins were isolated first. The cells of each test group were lysed with a buffer containing 10 mM HEPES/KOH, 0.1 mM EDTA, 10% NP-40, 10 mM KCl, 1 mM DTT, 0.5 mM PMSF and a protease inhibitor cocktail on ice for 10 minutes. After centrifugation, the supernatant (cytoplasmic proteins) was separated from the pellets (nuclear membrane proteins). The cytoplasmic proteins were kept at −80° C. and the pellets were lysed with a buffer containing 10 mM HEPES/KOH, 0.1 mM EDTA, 10% NP-40, 300 mM NaCl, 1 mM DTT, 0.5 mM PMSF and a protease inhibitor cocktail by shaking on ice for 30 minutes. Then, after centrifugation, the supernatant (nuclear proteins) was separated. […]
# rat mast cells = test: Antigen (DNP-IgE/DNP-HSA)-induced degranulation of rat mast cells (hexosaminidase release); format: cell-based; settings: at 2 μg/mL, DNP-IgE / 10 ng/mL DNP-HSA, concentration-dependent (FIG. 8c)
# Protocol: Further, the effect of homoisoflavanone on degranulation of rat mast cells induced by antigen was investigated. 5×10^4 rat mast cells were inoculated on a 6-well plate and cultured in MEM containing 15% FBS for 24 hours. Then, after reacting with 1 μg/mL DNP-IgE for 16 hours and then removing DNP-IgE by washing with PBS, the cells were cultured in 15% MEM for 6 hours. After pretreating with homoisoflavanone in Tyrode's solution for 30 minutes, the cells were treated with 10 ng/mL DNP-human serum albumin (HSA) to induce degranulation by transmitting the signals induced by the antigen. 30 minutes later, the supernatant was collected and the pellets were lysed with 0.5% triton X-100 (500 μL). The supernatant and the lysed pellets (70 μL) were incubated at 37° C. for 90 minutes in 0.1 M sodium citrate solution (pH 4.5) containing 8 mM p-nitrophenyl-N-acetyl-β-d-glucosaminide (70 μL). Then, after adding 0.2 M glycine (pH 10.7, 70 μL) to stop the reaction, absorbance was measured at 405 nm. Total enzymatic activity was calculated by the following equation.
# Release amount=(Absorbance of supernatant)÷(Absorbance of supernatant+Absorbance of pellets)×100%
# T cells = test: Mixed lymphocyte reaction (MLR), T cell proliferation (3H-thymidine); format: cell-based, mouse; settings: one-way MLR, BALB/C and C57B/C splenocytes, concentration-dependent (FIG. 9)
# Protocol: Mixed lymphocyte reaction (MLR) was carried out in order to investigate the inhibitory effect of homoisoflavanone against T cell proliferation. When mouse immune cells of different MHC classes are cultured as mixed with each other, the T cells recognize those of different MHC class as antigens and thus proliferate. One-way MLR was performed as follows. Following excision of spleens from BALB/C and C57B/C mice, the cells were individualized and red blood cells were lysed. After irradiation of 25 Gy γ-rays to BALB/C splenocytes to inactivate the BALB/C T cells, the BALB/C and C57B/C splenocytes (5×10^5 and 2×10^5 cells each) were mixed in a U-bottom 96-well plate. After treating with homoisoflavanone, the cells were incubated for 56 hours in an incubator of 5% CO2 and 37° C. Then, after further adding ^3[H]-thymidine (0.5) to each well, the cells were further incubated for 16 hours. Thereafter, the cells of each well were collected on filter paper and then put in a vial. After adding a scintillation solution (2 mL), counts per minute (CPM) was measured using a β-counter.
# Hairless mice = test: Ear edema transiently induced by croton oil in animal model; format: in vivo, mouse; settings: 1 μg/10 μL topical 1 h before 1.6% croton oil, 6 hours after croton oil (FIG. 10b)
# Protocol: Hairless mice were subdivided into a non-treated group (treated with acetone only, not with croton oil), a control group (treated with 1.6% croton oil) and a test group (treated with 1 μg/10 μL homoisoflavanone and 1.6% croton oil), and the effect on ear edema induced by croton oil was investigated.
# One hour before treating with 1.6% croton oil, 1 μg/10 μL homoisoflavanone was applied on the front and rear parts of the ear, 5 μL each. Then, 6 hours after treating with croton oil, ear thickness was measured.
compound,measurement,setting,value
COc1ccc(CC2COc3cc(O)cc(O)c3C2=O)cc1O (centres unmarked) [homoisoflavanone],phosphorylation of ERK,ERK,inhibited
same,migration of 5-LOX toward the nuclear membrane,5-LOX,inhibited
same,inhibition of antigen-induced degranulation (hexosaminidase release),rat mast cells,50%
same,concentrations at which proliferation of T cells was effectively inhibited,T cells,≥ 0.25 µg/mL
same,decrease in ear thickness,Hairless mice,63%
